Source: patent US8969395B2, “Triterpenoid derivatives useful as antiproliferative agents” (Universidade de Coimbra, priority 2009, dated 2015)

Columns and labels:
Chang liver cells = test: Cell cycle analysis by flow cytometry (FACS, PI), Chang liver; type: cell-based, human; settings: for effect on cell cycle in non-malignant cell line: IC80 values determined for HepG2, 72 h; for Phase of cell cycle (% of cells) G0/G1 / Phase of cell cycle (% of cells) G2/M / Phase of cell cycle (% of cells) S: compound at IC80 determined for HepG2, 72 h
Protocol: The effects on the cell cycle of some of these compounds were assessed through flow cytometry by using a fluorescence-activated cell sorter (FACS) (Table 5 below). For this assay 2.3×10^5 HepG2 cells/well, 2.9×10^4 HeLa cells/well, 1.6×10^5 Jurkat cells/well and 1.4×10^5 Chang liver cells/well were plated in 6 well plates with 2 ml of medium. The number of cells was determined by the relationship number of cells/area wells, considering the number of cells that were cultured in 96-well plates. […] Following 72 h. of incubation, cells were harvested by mild trypsinization, collected by centrifugation and stained in ice-cold Tris-buffered saline (TBS), containing 1 mg/ml PI, 10 mg/ml RNAse free of DNAase and 0.1% Igepal CA-630 for 1 h at 4° C. FACS analysis was carried out at 488 nm in an Epics XL flow cytometer (Coulter Corporation, Hialeah, Fla.). Data from 8×10^3 cells were collected and analyzed using Multicycle program (Phoenix Flow Systems, San Diego, Calif.). All experiments were performed three times with three replicates per experiment. […] To explore the selectivity of the effect on tumor cells, we also tested compounds 20, 44 and 46 in a non-malignant cell line.

[1] = test system: HeLa (human cervical adenocarcinoma); test: Cytotoxic activity, MTT assay, HeLa; type: cell-based; settings: 72 h, mean ±SD
[2] = test system: LNCaP (human prostate adenocarcinoma); test: Cytotoxic activity, LNCaP; type: cell-based; settings: mean ±SD
Protocol: (§1) Compounds presented in Table 6 were also tested in the following cell lines: PC-3 (human prostate adenocarcinoma), LNCaP (human prostate adenocarcinoma), LAPC4 (human prostate adenocarcinoma) and HT-29 (human colon adenocarcinoma).

[3] = test system: PC-3 (human prostate adenocarcinoma); test: Cytotoxic activity, PC-3; type: cell-based; settings: mean ±SD
Protocol: as §1

[4] = test system: LAPC4 (human prostate adenocarcinoma); test: Cytotoxic activity, LAPC4; type: cell-based; settings: mean ±SD
Protocol: as §1

HepG2 cells = test: Cell cycle analysis by flow cytometry (FACS, PI), HepG2; type: cell-based, human; settings: for Phase of cell cycle (% of cells) G0/G1 / Phase of cell cycle (% of cells) G2/M / Phase of cell cycle (% of cells) S: HepG2, compound at its IC50, 72 h; for decrease in the percentage of cells in the G0/G1 phase / increase in the population in S phase: HepG2, with respect to untreated cells, at IC50, 72 h
Protocol: The effects on the cell cycle of some of these compounds were assessed through flow cytometry by using a fluorescence-activated cell sorter (FACS) (Table 5 below). For this assay 2.3×10^5 HepG2 cells/well, 2.9×10^4 HeLa cells/well, 1.6×10^5 Jurkat cells/well and 1.4×10^5 Chang liver cells/well were plated in 6 well plates with 2 ml of medium. The number of cells was determined by the relationship number of cells/area wells, considering the number of cells that were cultured in 96-well plates. […] Chang liver cells were incubated with compounds 20, […] at concentrations corresponding to the IC80 determined for HepG2 at 72 h. Following 72 h. of incubation, cells were harvested by mild trypsinization, collected by centrifugation and stained in ice-cold Tris-buffered saline (TBS), containing 1 mg/ml PI, 10 mg/ml RNAse free of DNAase and 0.1% Igepal CA-630 for 1 h at 4° C. FACS analysis was carried out at 488 nm in an Epics XL flow cytometer (Coulter Corporation, Hialeah, Fla.). Data from 8×10^3 cells were collected and analyzed using Multicycle program (Phoenix Flow Systems, San Diego, Calif.). All experiments were performed three times with three replicates per experiment. […] To explore the selectivity of the effect on tumor cells, we also tested compounds 20, 44 and 46 in a non-malignant cell line. Chang liver cells were treated with the compounds at the IC80 values determined for HepG2 after 72 h of incubation and no effect was observed, indicating a selective effect of these agents (Table 5 below).

SMILES | effect on cell cycle in non-malignant cell line (Chang liver cells) | Phase of cell cycle (% of cells) G0/G1 (Chang liver cells) | Phase of cell cycle (% of cells) G2/M (Chang liver cells) | Phase of cell cycle (% of cells) S (Chang liver cells) | IC50 [1] [µM] | IC50 [2] [µM] | IC50 [3] [µM] | IC50 [4] [µM] | Phase of cell cycle (% of cells) G0/G1 (HepG2 cells) | Phase of cell cycle (% of cells) G2/M (HepG2 cells) | Phase of cell cycle (% of cells) S (HepG2 cells) | decrease in the percentage of cells in the G0/G1 phase (HepG2 cells) [%] | increase in the population in S phase (HepG2 cells) [%]
C=C(C)[C@@H]1CC[C@]2(CO)CC[C@]3(C)[C@H](CC[C@@H]4[C@@]5(C)CC[C@H](OC(=O)n6ccnc6)C(C)(C)[C@@H]5CC[C@]43C)[C@@H]12 [Compound 20, 28-hydroxy-lup-20(29)-en-3β-yl-1H-imidazole-1-carboxylate] | no effect | 68.6 ± 4.2 % of cells | 9.3 ± 1.3 % of cells | 22.0 ± 3.0 % of cells | 3 ± 0.2 | 15 ± 1.8 | 9.2 ± 0.7 | 16.4 ± 2.1 | 49.4 ± 1.2 % of cells | 14.5 ± 0.8 % of cells | 36.1 ± 0.8 % of cells | 12 | 17
C=C(C)[C@@H]1CC[C@]2(C(=O)n3ccnc3)CC[C@]3(C)[C@H](CC[C@@H]4[C@@]5(C)CCC(=O)C(C)(C)[C@@H]5CC[C@]43C)[C@@H]12 [Compound 44, 28-(1H-imidazol-1-yl)-lup-20(29)-en-3,28-dione] | no effect | 68.2 ± 2.9 % of cells | 8.6 ± 0.8 % of cells | 23.2 ± 2.5 % of cells | 2 ± 0.3 | 13.7 ± 0.5 | 6.9 ± 1.1 | 17.2 ± 2.3 | 45.6 ± 2.1 % of cells | 14.9 ± 1.4 % of cells | 39.6 ± 3.6 % of cells | 16 | 20
C=C(C)[C@@H]1CC[C@]2(C(=O)n3ccnc3)CC[C@]3(C)[C@H](CC[C@@H]4[C@@]5(C)C=CC(=O)C(C)(C)[C@@H]5CC[C@]43C)[C@@H]12 [Compound 46, 28-(1H-imidazol-1-yl)-lup-1,20 (29)-dien-3,28-dione] | no effect | 68.2 ± 4.9 % of cells | 9.2 ± 1.4 % of cells | 22.6 ± 3.8 % of cells | 3 ± 0.2 | – | – | – | 54.7 ± 1.5 % of cells | 14.3 ± 1.0 % of cells | 30.7 ± 0.6 % of cells | 7 | 12
